The subject of the test is IL-1β release, THP-1 cells. The test can be described thus: IL-1β release assay in differentiated THP-1 cells stimulated with BzATP (Example 9). It counts as cell-based. As to conditions: Homo sapiens; for inhibition at 0.3 µM: 0.3 μM compound ("+" symbols); for inhibition at 0.3 µM / inhibition at 0.1 µM: differentiated THP-1 cells, 250 uM BzATP, read-out: IL-1β% Inhib. @ 0.3 or 0.1 μM; for IC50: THP-1 cells, BzATP 250 uM, four parameter logistic fit; for inhibition at 0.1 µM: 0.1 μM compound ("*" symbols). The protocol:
THP-1 cells (ATCC Cat # 285-IF-100) are plated in 96 well plates at a concentration of 200,000 cells per well and allowed to differentiate in RPMI-1640 media (ATCC Cat # 30-2001) containing 10% FBS, 100 IU/mL penicillin, 100 ug/mL streptomycin, 100 ng/mL LPS and 100 ng/mL IFN-γ for 16 hours. Following differentiation, the cells are treated for an additional 2 hours in RPMI-1640 media containing 100 IU/mL penicillin, 100 ug/mL streptomycin and fresh LPS at 100 ng/mL. The cells are then pretreated for 30 minutes with the compound of interest at the appropriate concentration in RPMI media containing 100 IU/mL penicillin, 100 ug/mL streptomycin. Following the pretreatment 2′,3′-O-(4-benzoylbenzoyl)-adenosine 5′-triphosphate (Sigma Aldrich Cat # B6396) is added to a final concentration of 250 uM and the cells are incubated for an additional 45 minutes. 30 uL of cell supernatant is then collected and IL-1β levels determined via ELISA (R&D systems Cat. # HSLB50) according to manufacturer's recommendations using the Tecan Safire plate reader. Background adjusted IL-1β levels of drug treated and non-treated cells are used to calculate the percent inhibition.
The following compounds have been or can be prepared according to the synthetic methods described above. For the purpose of Table 1 below, activity of each compound, which can be determined using the IL-1β assay method described in Example 9, is expressed as follows: […]
The compounds set forth in Table 1 were tested for activity in a cellular model as described herein. Specifically, cells were pretreated with differing amounts of the compound under test and released IL-1β determined as in Example 9, above. Measurements were made and IC50 values, presented in Table 2, below, were determined by fitting the data to a four parameter logistic equation using GraphPad Prism software (GraphPad Software, Inc). The equation may be expressed by the following formula:
Y=Bottom+(Top−Bottom)/(1+10̂((Log EC50−X)*HillSlope))
Where X is the logarithm of concentration, Y is the response and Y starts at Bottom and goes to Top with a sigmoid shape.

Take `O=C(Cc1ccc(C(F)(F)F)cc1)Nc1c(Cl)ccc2c1CCN(S(=O)(=O)c1ccccc1Cl)C2` [Compound 3001, N-[6-Chloro-2-(2-chloro-benzenesulfonyl)-1,2,3,4-tetrahydro-isoquinolin-5-yl]-2-(4-trifluoromethyl-phenyl)-acetamide]: the inhibition at 0.3 µM is at least 76% and the IC50 turned out to be 49.3 nM.
Consider `O=C(Cc1ccc(C(F)(F)F)cc1)Nc1c(Cl)ccc2c1CCN(S(=O)(=O)c1ccccc1F)C2` [Compound 3002], for which the inhibition at 0.1 µM lay within 0 to 25%.
On to `O=C(Cc1ccc(C(F)(F)F)cc1)Nc1c(Cl)ccc2c1CCN(S(=O)(=O)c1cccc(F)c1)C2` [Compound 3003], for which the inhibition at 0.1 µM was in the range of 0 to 25%.
`O=C(Cc1ccc(C(F)(F)F)cc1)Nc1c(Cl)ccc2c1CCN(S(=O)(=O)c1ccc(F)cc1)C2` [Compound 3004]: the inhibition at 0.1 µM fell in the range of 0 to 25%.
Take `O=C(Cc1ccc(C(F)(F)F)cc1)Nc1c(Cl)ccc2c1CCN(S(=O)(=O)c1ccc(F)c(F)c1)C2` [Compound 3005]: the inhibition at 0.1 µM lay in the range of 0 to 25%.
Consider `O=C(Cc1ccc(C(F)(F)F)cc1)Nc1c(Cl)ccc2c1CCN(S(=O)(=O)c1cc(F)cc(F)c1)C2` [Compound 3006], for which the inhibition at 0.1 µM fell in the range of 0 to 25%.
Same read-out and setting: for `O=C(Cc1ccc(C(F)(F)F)cc1)Nc1c(Cl)ccc2c1CCN(S(=O)(=O)c1ccc(F)cc1F)C2` [Compound 3007] the value was 0 to 25%; for `O=C(Cc1ccc(C(F)(F)F)cc1)Nc1c(Cl)ccc2c1CCN(S(=O)(=O)c1cc(F)ccc1F)C2` [Compound 3008], 0 to 25%.
`O=C(Cc1ccc(C(F)(F)F)cc1)Nc1c(Cl)ccc2c1CCN(S(=O)(=O)c1c(F)cccc1F)C2` [Compound 3009]: the inhibition at 0.1 µM was 0 to 25%.
For the compound `Cc1cc(F)ccc1S(=O)(=O)N1CCc2c(ccc(Cl)c2NC(=O)Cc2ccc(C(F)(F)F)cc2)C1` [Compound 3010], the inhibition at 0.1 µM fell in the range of 0 to 25%.
With `Cc1ccc(F)cc1S(=O)(=O)N1CCc2c(ccc(Cl)c2NC(=O)Cc2ccc(C(F)(F)F)cc2)C1` [Compound 3011], the inhibition at 0.1 µM lay within 0 to 25%.
Turning to `O=C(Cc1ccc(C(F)(F)F)cc1)Nc1c(Cl)ccc2c1CCN(S(=O)(=O)c1cccc(Cl)c1)C2` [Compound 3012], the inhibition at 0.1 µM was 0 to 25%.
With `O=C(Cc1ccc(C(F)(F)F)cc1)Nc1c(Cl)ccc2c1CCN(S(=O)(=O)c1ccc(Cl)cc1)C2` [Compound 3013], the inhibition at 0.1 µM was 0 to 25%.
Turning to `O=C(Cc1ccc(C(F)(F)F)cc1)Nc1c(Cl)ccc2c1CCN(S(=O)(=O)c1cccc(Cl)c1Cl)C2` [Compound 3014], the inhibition at 0.1 µM lay within 0 to 25%.
On to `O=C(Cc1ccc(C(F)(F)F)cc1)Nc1c(Cl)ccc2c1CCN(S(=O)(=O)c1cc(Cl)cc(Cl)c1)C2` [Compound 3015], for which the inhibition at 0.1 µM was in the range of 0 to 25%.
Still for that read-out and setting: for `O=C(Cc1ccc(C(F)(F)F)cc1)Nc1c(Cl)ccc2c1CCN(S(=O)(=O)c1ccc(Cl)cc1F)C2` [Compound 3016] the value was 0 to 25%; for `O=C(Cc1ccc(C(F)(F)F)cc1)Nc1c(Cl)ccc2c1CCN(S(=O)(=O)c1ccc(F)cc1Cl)C2` [Compound 3017], 0 to 25%; for `O=C(Cc1ccc(C(F)(F)F)cc1)Nc1c(Cl)ccc2c1CCN(S(=O)(=O)c1cc(Cl)ccc1F)C2` [Compound 3018], 0 to 25%.
Regarding `O=C(Cc1ccc(C(F)(F)F)cc1)Nc1c(Cl)ccc2c1CCN(S(=O)(=O)c1cccc(Cl)c1F)C2` [Compound 3019], the inhibition at 0.1 µM lay within 0 to 25%.
Regarding `O=C(Cc1ccc(C(F)(F)F)cc1)Nc1c(Cl)ccc2c1CCN(S(=O)(=O)c1ccc(Cl)c(C(F)(F)F)c1)C2` [Compound 3020], the inhibition at 0.1 µM was 0 to 25%.
Turning to `O=C(Cc1ccc(C(F)(F)F)cc1)Nc1c(Cl)ccc2c1CCN(S(=O)(=O)c1ccc(C(F)(F)F)cc1Cl)C2` [Compound 3021], the inhibition at 0.1 µM lay within 0 to 25%.
Turning to `O=C(Cc1ccc(C(F)(F)F)cc1)Nc1c(Cl)ccc2c1CCN(S(=O)(=O)c1cc(C(F)(F)F)ccc1Cl)C2` [Compound 3022], the inhibition at 0.1 µM lay within 0 to 25%.
For `Cc1ccccc1S(=O)(=O)N1CCc2c(ccc(Cl)c2NC(=O)Cc2ccc(C(F)(F)F)cc2)C1` [Compound 3023], the inhibition at 0.1 µM lay in the range of 0 to 25%.
For `Cc1cccc(S(=O)(=O)N2CCc3c(ccc(Cl)c3NC(=O)Cc3ccc(C(F)(F)F)cc3)C2)c1` [Compound 3024], the inhibition at 0.1 µM lay within 0 to 25%.
For `Cc1ccc(C)c(S(=O)(=O)N2CCc3c(ccc(Cl)c3NC(=O)Cc3ccc(C(F)(F)F)cc3)C2)c1` [Compound 3025], the inhibition at 0.3 µM was at least 76% and the midpoint of inhibition, the IC50, lay at 84 nM.
For the compound `Cc1ccc(S(=O)(=O)N2CCc3c(ccc(Cl)c3NC(=O)Cc3ccc(C(F)(F)F)cc3)C2)c(C)c1` [Compound 3026], the inhibition at 0.1 µM lay within 0 to 25%.
`N#Cc1ccccc1S(=O)(=O)N1CCc2c(ccc(Cl)c2NC(=O)Cc2ccc(C(F)(F)F)cc2)C1` [Compound 3027]: the inhibition at 0.1 µM lay within 0 to 25%.
On to `N#Cc1cccc(S(=O)(=O)N2CCc3c(ccc(Cl)c3NC(=O)Cc3ccc(C(F)(F)F)cc3)C2)c1` [Compound 3028], for which the inhibition at 0.1 µM fell in the range of 0 to 25%.
As for `N#Cc1ccc(S(=O)(=O)N2CCc3c(ccc(Cl)c3NC(=O)Cc3ccc(C(F)(F)F)cc3)C2)cc1` [Compound 3029], the inhibition at 0.1 µM is 0 to 25%.
Turning to `COc1cccc(S(=O)(=O)N2CCc3c(ccc(Cl)c3NC(=O)Cc3ccc(C(F)(F)F)cc3)C2)c1` [Compound 3030], the inhibition at 0.1 µM lay in the range of 0 to 25%.
With `O=C(Cc1ccc(C(F)(F)F)cc1)Nc1c(Cl)ccc2c1CCN(S(=O)(=O)c1ccccc1C(F)(F)F)C2` [Compound 3031], the inhibition at 0.1 µM is 0 to 25%.
Regarding `O=C(Cc1ccc(C(F)(F)F)cc1)Nc1c(Cl)ccc2c1CCN(S(=O)(=O)c1cccc(C(F)(F)F)c1)C2` [Compound 3032], the inhibition at 0.1 µM was 0 to 25%.
For `O=C(Cc1ccc(C(F)(F)F)cc1)Nc1c(Cl)ccc2c1CCN(S(=O)(=O)c1ccc(C(F)(F)F)cc1)C2` [Compound 3033], the inhibition at 0.1 µM lay in the range of 0 to 25%.
As for `O=C(Cc1ccc(C(F)(F)F)cc1)Nc1c(Cl)ccc2c1CCN(S(=O)(=O)c1ccccc1OC(F)(F)F)C2` [Compound 3034], the inhibition at 0.1 µM fell in the range of 0 to 25%.
As to `CN(C)CCC(=O)N1CCc2c(cccc2NC(=O)Cc2ccc(C(F)(F)F)c(F)c2)C1` [Compound 3035], the inhibition at 0.1 µM lay within 0 to 25% and the IC50 stood at 967 nM.
Turning to `O=C(Cc1ccc(C(F)(F)F)c(F)c1)Nc1cccc2c1CCN(C(=O)C1COc3ccccc3O1)C2` (stereo not drawn) [Compound 3036], the inhibition at 0.3 µM lay in the range of 0 to 25% and the IC50 is above 1000 nM.
Take `O=C(Cc1ccc(C(F)(F)F)c(F)c1)Nc1cccc2c1CCN(C(=O)[C@H]1COc3ccccc3O1)C2` [Compound 3037]: the inhibition at 0.3 µM is at least 76% and the midpoint of inhibition, the IC50, lay at 145 nM.
On to `O=C(Cc1ccc(C(F)(F)F)c(F)c1)Nc1cccc2c1CCN(C(=O)C1CCOCC1)C2` [Compound 3038], for which the inhibition at 0.3 µM was 0 to 25% and half-maximal inhibition (IC50) was put at 430 nM.
As to `O=C(Cc1ccc(C(F)(F)F)c(F)c1)Nc1cccc2c1CCN(C(=O)C1CCOC1)C2` (stereo not drawn) [Compound 3039], the inhibition at 0.3 µM was in the range of 26 to 50% and the IC50 amounted to 443 nM.
As for `O=C(Cc1ccc(C(F)(F)F)c(F)c1)Nc1cccc2c1CCN(C(=O)C1COc3ccccc3C1)C2` (stereo not drawn) [Compound 3040], the inhibition at 0.3 µM was at least 76% and inhibition was half-maximal at 64.2 nM (IC50).
For `O=C(Cc1ccc(C(F)(F)F)c(F)c1)Nc1cccc2c1CCN(C(=O)C1CC1)C2` [Compound 3041], the inhibition at 0.3 µM lay within 0 to 25% and the IC50 amounted to 495 nM.
The matching figures for `O=C(Cc1ccc(C(F)(F)F)c(F)c1)Nc1cccc2c1CCN(C(=O)CC1CCCCC1)C2` [Compound 3042]: at least 76% and 153 nM.
For the compound `O=C(Cc1ccc(C(F)(F)F)c(F)c1)Nc1cccc2c1CCN(C(=O)CC1CCCCCC1)C2` [Compound 3043], the inhibition at 0.3 µM was at least 76% and the concentration for half-maximal inhibition (IC50) was determined as 82.5 nM.
Regarding `Cc1ncccc1C(=O)N1CCc2c(cccc2NC(=O)Cc2ccc(C(F)(F)F)c(F)c2)C1` [Compound 3044], the inhibition at 0.3 µM was 0 to 25% and the half-inhibitory concentration (IC50) was above 1000 nM.
On to `CC(C)(C)OC(=O)NC(Cc1ccccc1)C(=O)N1CCc2c(cccc2NC(=O)Cc2ccc(C(F)(F)F)c(F)c2)C1` (stereo not drawn) [Compound 3045], for which the inhibition at 0.3 µM is 26 to 50% and the concentration for half-maximal inhibition (IC50) amounted to 385 nM.
Regarding `CC(C)(C)OC(=O)N1CCC(OCC(=O)N2CCc3c(cccc3NC(=O)Cc3ccc(C(F)(F)F)c(F)c3)C2)CC1` [Compound 3047], the inhibition at 0.3 µM lay within 51 to 75% and the IC50 is 199 nM.

(Values after patent US20100298285A1, “Biclycloheteroaryl Compounds as P2x7 Modulators and Uses Thereof” (priority 2006, published 2010).)
